This is an account of results in ChEMBL document CHEMBL1147185, “Comparative rates of sialylation by recombinant trans-sialidase and inhibitor properties of synthetic oligosaccharides from Trypanosoma cruzi mucins-containing galactofuranose and galactopyranose” (Bioorg Med Chem, 2007).

This assay is described as follows: Inhibition of Trypanosoma cruzi trans-sialidase after 15 mins.
What is called IC50 is the concentration that inhibits the measured activity by half. The low end stands for greater potency, the high end for weaker potency. In turn, `O=C(CO)N[C@H]1[C@@H](OCc2ccccc2)O[C@H](CO)[C@@H](O[C@@H]2O[C@@H]([C@H](O)CO)[C@H](O)[C@H]2O[C@@H]2O[C@H](CO)[C@H](O)[C@H](O)[C@H]2O)[C@@H]1O` showed a 50% inhibitory concentration (IC50) of 1670 µM.

`O=C(COCc1ccccc1)N[C@H]1[C@@H](OCc2ccccc2)O[C@H](CO[C@@H]2O[C@H](CO)[C@H](O)[C@H](O)[C@H]2O)[C@@H](O[C@H]2O[C@H]([C@@H](O)CO)[C@@H](O)[C@@H]2O)[C@@H]1O` gave a concentration for half-maximal inhibition (IC50) of 860 µM.

In turn, `CC(=O)N[C@H]1[C@@H](OCc2ccccc2)O[C@H](CO[C@@H]2O[C@H](CO)[C@H](O)[C@H](O)[C@H]2O)[C@@H](O)[C@@H]1O` yielded a half-maximal inhibitory concentration (IC50) of 2220 µM.

Compound `O=C(CO)N[C@H]1[C@H](OCc2ccccc2)O[C@@H](CO[C@@H]2O[C@H](CO)[C@H](O)[C@H](O[C@H]3O[C@@H](CO)[C@@H](O)[C@@H](O)[C@@H]3O)[C@H]2O[C@@H]2O[C@H](CO)[C@H](O)[C@H](O)[C@H]2O)[C@H](O[C@@H]2O[C@@H]([C@H](O)CO)[C@H](O)[C@H]2O)[C@H]1O` displayed a 50% inhibitory concentration (IC50) of 610 µM.

Take `OC[C@@H]1O[C@H](O[C@@H]2[C@H](O)[C@H](CO)O[C@H](OCc3ccccc3)[C@H]2O[C@@H]2O[C@H](CO)[C@H](O)[C@H](O)[C@H]2O)[C@@H](O)[C@H](O)[C@@H]1O`: the 50% inhibitory concentration (IC50) came to 1130 µM.

For the compound `O=C(COCc1ccccc1)N[C@H]1[C@@H](OCc2ccccc2)O[C@H](CO)[C@@H](O[C@@H]2O[C@@H]([C@H](O)CO)[C@H](O)[C@H]2O[C@@H]2O[C@H](CO)[C@H](O)[C@H](O)[C@H]2O)[C@@H]1O`, the half-maximal inhibitory concentration (IC50) was determined as 850 µM.

Compound `CC(=O)N[C@H]1[C@@H](OCc2ccccc2)O[C@H](CO[C@@H]2O[C@H](CO)[C@H](O)[C@H](O)[C@H]2O)[C@@H](O[C@H]2O[C@H]([C@@H](O)CO)[C@@H](O)[C@@H]2O)[C@@H]1O` displayed a half-maximal inhibitory concentration (IC50) of 1330 µM.

`CC(=O)N[C@H]1[C@H](OCc2ccccc2)O[C@@H](CO[C@@H]2O[C@H](CO)[C@H](O)[C@H](O[C@H]3O[C@@H](CO)[C@@H](O)[C@@H](O)[C@@H]3O)[C@H]2O[C@@H]2O[C@H](CO)[C@H](O)[C@H](O)[C@H]2O)[C@H](O[C@@H]2O[C@@H]([C@H](O)CO)[C@H](O)[C@H]2O)[C@H]1O` showed an IC50 of 850 µM.

In turn, `O=C(CO)N[C@H]1[C@@H](OCc2ccccc2)O[C@H](CO[C@@H]2O[C@H](CO)[C@H](O)[C@H](O)[C@H]2O)[C@@H](O[C@H]2O[C@H]([C@@H](O)CO)[C@@H](O)[C@@H]2O)[C@@H]1O` yielded an IC50 of 940 µM.

In turn, `O=C(COCc1ccccc1)N[C@H]1[C@@H](OCc2ccccc2)O[C@H](CO[C@@H]2O[C@H](CO)[C@H](O)[C@H](O)[C@H]2O)[C@@H](O)[C@@H]1O` showed a half-maximal inhibitory concentration (IC50) of 1110 µM.

The compound `CC(=O)N[C@H]1[C@@H](OCc2ccccc2)O[C@H](CO)[C@@H](O[C@@H]2O[C@@H]([C@H](O)CO)[C@H](O)[C@H]2O[C@@H]2O[C@H](CO)[C@H](O)[C@H](O)[C@H]2O)[C@@H]1O` registered a concentration for half-maximal inhibition (IC50) of 4430 µM.

As for `O=C(COCc1ccccc1)N[C@H]1[C@H](OCc2ccccc2)O[C@@H](CO[C@@H]2O[C@H](CO)[C@H](O)[C@H](O[C@H]3O[C@@H](CO)[C@@H](O)[C@@H](O)[C@@H]3O)[C@H]2O[C@@H]2O[C@H](CO)[C@H](O)[C@H](O)[C@H]2O)[C@H](O[C@@H]2O[C@@H]([C@H](O)CO)[C@H](O)[C@H]2O)[C@H]1O`, the IC50 stood at 700 µM.

In turn, `O=C(COCc1ccccc1)N[C@H]1[C@H](OCc2ccccc2)O[C@@H](CO[C@H]2O[C@@H](CO)[C@@H](O)[C@@H](O[C@H]3O[C@@H](CO)[C@@H](O)[C@H](O)[C@@H]3O)[C@@H]2O)[C@H](O[C@@H]2O[C@@H]([C@H](O)CO)[C@H](O)[C@H]2O)[C@H]1O` came in with an IC50 of 1140 µM.

The compound `O=C(CO)N[C@H]1[C@H](OCc2ccccc2)O[C@@H](CO[C@H]2O[C@@H](CO)[C@@H](O)[C@@H](O[C@H]3O[C@@H](CO)[C@@H](O)[C@H](O)[C@@H]3O)[C@@H]2O)[C@H](O[C@@H]2O[C@@H]([C@H](O)CO)[C@H](O)[C@H]2O)[C@H]1O` came in with a half-maximal inhibitory concentration (IC50) of 1260 µM.

Regarding `O=C(CO)N[C@H]1[C@@H](OCc2ccccc2)O[C@H](CO[C@@H]2O[C@H](CO)[C@H](O)[C@H](O)[C@H]2O)[C@@H](O)[C@@H]1O`, half-maximal inhibition (IC50) required 980 µM.

In the case of `CC(=O)N[C@H]1[C@H](OCc2ccccc2)O[C@@H](CO[C@H]2O[C@@H](CO)[C@@H](O)[C@@H](O[C@H]3O[C@@H](CO)[C@@H](O)[C@H](O)[C@@H]3O)[C@@H]2O)[C@H](O[C@@H]2O[C@@H]([C@H](O)CO)[C@H](O)[C@H]2O)[C@H]1O`, the IC50 is 760 µM.
